The results in this text go back to article PMC10973839, “CHF6297: a novel potent and selective p38 MAPK inhibitor with robust anti-inflammatory activity and suitable for inhaled pulmonary administration as dry powder” (Frontiers in Pharmacology, 2024).

One data set deals with T1, human p38β (MAPK11) (Homo sapiens, UniProt Q15759).
T1 construct: GST; purchased Invitrogen
Nature of the data set: AlphaScreen kinase activity assay, human p38β. The class given is biochemical. The protocol:
(§1) The inhibitory activity of CHF6297 was determined using an AlphaScreen® (PerkinElmer)-based kinase activity assay as previously described ([Armani et al., 2022]). Kinase reactions consisted of 25 mM 4-(2-hydroxyethyl)-1-piperazine ethanesulfonic acid (HEPES), pH 7.5; 10 mM MgCl2; 100 μM Na3VO4; 2 mM DTT; 0.05 mg/mL Tween^TM 20; 100 pM solution of p38α, p38β, p38δ, or p38γ (Invitrogen); 1% DMSO; and 0.3 μg/mL ATF-2 fusion protein (New England Biolabs). Compounds were incubated under these conditions for 2 h, at 25°C, prior to the initiation of kinase activity by the addition of 250 μM ATP. […] Detection was performed by measuring luminescence following the addition of AlphaScreen donor beads (PerkinElmer, 6765300) and Protein A AlphaScreen acceptor beads (PerkinElmer, 6760137), both at a final concentration of 20 μg/mL. IC50 values were determined from concentration–response curves. […]
(§2) CHF6297 was tested in biochemical enzymatic assays to determine its potency as an inhibitor of human p38α (MAPK14) and of the other human p38 isoforms, p38β (MAPK11), p38γ ([…]), and p38δ ([…]) ([Armani et al., 2022]). Activity in the primary screening assay was determined using AlphaScreen technology, in which a peptide (ATF2) is phosphorylated by the appropriate GST-tagged p38 protein isoform in the presence of CHF6297 at concentrations from semi-logarithmic dilutions. […]

Data set [1] in a line: Inhalation pharmacokinetics in rats. The class given is in vivo, male Wistar rats. The note with it: for Lung Cmax: 30-min nose-only inhalation; for Plasma Tmax: IAD: immediately after dosing; for Lung Tmax: IAD: immediately after dosing (5 min after end of exposure); for half-life: lung, read-out: Lung t1/2 (converted); for Cmax / AUC(0-t): plasma; for AUC(0-t): read-out: Plasma AUClast. How it is done: Inhalation pharmacokinetics (PK) of CHF6297 as micronised dry powder blended with lactose 20% w/w was investigated in male Wistar rats at 2 dose levels (0.1 and 1 mg/kg) using the nose-only inhalation delivery system (Figure 8). For each PK study, 21 rats were placed in suitable plastic restrainers and connected to the inhalation tower. Inhalation system parameters were set to achieve a nominal dose of 0.1 mg/kg and 1 mg/kg in 30 min of exposure. The particle size and actual dose are given in Supplementary Material (Table 2). At the end of the inhalation period, the animals were returned to their cages. […] Then, lung samples were immediately excised, externally washed with cold saline, accurately weighed, homogenized using a temperature-controlled Precellys homogenizer (Bertin Technologies, France), and stored at −80 °C until analysis.
Plasma and lung samples were analyzed by using an HPLC-MS/MS system, consisting of a 4000 QTRAP mass spectrometer (AB Sciex LLC, Framingham, MA, United States) with an electrospray ionization (ESI) source, coupled to an Agilent 1100 HPLC (Agilent Technologies, Santa Clara, CA, United States). Analyte separation was performed using a Gemini C18 column (Phenomenex Inc., Torrance, CA, United States) and water with 0.1% v/v AcOH in the gradient with acetonitrile with 0.1% v/v AcOH as eluents. Sample preparation was performed by protein precipitation using preassembled filtration devices (Mini-UniPrep Syringeless Filters, 0.45 µm PTFE, Whatman, GE Healthcare, Buckinghamshire, United Kingdom). Aliquots of 50 μL of the sample (plasma or homogenate) were transferred to the bottom part of the device, spiked with 10 μL of the appropriate internal standard solution, and 150 μL of acetonitrile was added. The calibration and quality control samples were prepared by adding 10 µL of the CHF6297 working standard solution in acetonitrile to 50 µL of the blank matrix. After vortex mixing, the obtained mixture was filtered by manual compression of the device, and the filtered solution was diluted with 100 μL of water. The Mini-UniPrep devices were directly placed in the autosampler rack of the HPLC system. Pharmacokinetic evaluation and parameter determination (Cmax, Tmax, AUClast, and t1/2) were performed with Phoenix 64 software (Certara, New Jersey, United States) using non-compartmental analysis. Since the actual dose was within ±5% of the nominal one, the nominal dose was used for PK calculation.

The target of the next data set is T2, human p38α (MAPK14) (Homo sapiens, UniProt Q16539).
T2 construct: GST; purchased Invitrogen
T2 sequence (Q16539 whole entry): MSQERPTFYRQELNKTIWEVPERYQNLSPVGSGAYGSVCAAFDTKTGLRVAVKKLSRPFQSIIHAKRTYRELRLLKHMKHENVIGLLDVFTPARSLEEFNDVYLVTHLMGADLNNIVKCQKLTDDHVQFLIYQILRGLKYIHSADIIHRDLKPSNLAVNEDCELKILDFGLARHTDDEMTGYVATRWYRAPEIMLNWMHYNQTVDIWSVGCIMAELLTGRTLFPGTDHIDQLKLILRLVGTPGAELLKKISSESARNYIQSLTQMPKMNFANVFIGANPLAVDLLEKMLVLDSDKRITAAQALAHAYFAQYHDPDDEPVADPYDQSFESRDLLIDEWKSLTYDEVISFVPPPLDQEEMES
Nature of the data set: AlphaScreen kinase activity assay, human p38α. The format is biochemical. The protocol: as §1, §2
In general terms: Alpha assays give light when donor and acceptor beads are brought close together.

Another data set addresses rat p38α (Rattus norvegicus, UniProt P70618). Nature of the data set: AlphaScreen kinase activity assay, rat p38α. The class given is biochemical.
The mark [2] stands for this setting: n = 3, read-out: IC50 (mean ± s.d.).
Setting [3] is: male, Wistar, rat, inhaled or intranasal, 0.1 mg/kg.
Setting [4] is: male, Wistar, rat, inhaled or intranasal, 1.0 mg/kg.

Read-outs that look alike come from different tables or passages of the source.

Sequence of rat p38α (P70618 whole entry): as the sequence (Q16539 whole entry) above, with I17V, L48H, T263A, D321E, L332F counted along it
T1 sequence (Q15759 whole entry): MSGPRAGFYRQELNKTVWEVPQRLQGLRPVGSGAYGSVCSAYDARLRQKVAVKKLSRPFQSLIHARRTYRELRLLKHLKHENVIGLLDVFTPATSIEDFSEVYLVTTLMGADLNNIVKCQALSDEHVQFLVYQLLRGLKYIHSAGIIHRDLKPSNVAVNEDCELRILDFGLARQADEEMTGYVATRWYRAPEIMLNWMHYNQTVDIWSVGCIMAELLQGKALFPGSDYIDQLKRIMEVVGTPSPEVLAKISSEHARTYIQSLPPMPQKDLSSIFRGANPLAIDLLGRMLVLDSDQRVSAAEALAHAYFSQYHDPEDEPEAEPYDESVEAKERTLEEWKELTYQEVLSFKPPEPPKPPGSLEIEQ

Take `C[C@H]1CCCCN1c1nnc2ccc(O[C@@H]3CC[C@H](NC(=O)Nc4cc(C(C)(C)C)nn4-c4cnn(CCN(C)C)c4)c4ccccc43)cn12` [CHF6297]: the “IC50 fold-difference vs. human p38α” value came to 1.4 against human p38β (MAPK11), 1 at human p38α (MAPK14) and 3.5 at rat p38α. Also, the figures for the IC50 on human p38β (MAPK11) (setting [2]), on human p38α (MAPK14) (setting [2]) and at rat p38α (setting [2]) were 200 ± 17 pM, 140 ± 60 pM and 500 ± 180 pM, respectively. The “Lung AUClast” value in data set [1] (0.1 mg/kg) was 42,097 h*ng/g. The “Lung Cmax” value was 7,187 ng/g in data set [1] (0.1 mg/kg) and 54,000 ng/g in data set [1] (1.0 mg/kg). The “Plasma Tmax” value in data set [1] (0.1 mg/kg) and in data set [1] (1.0 mg/kg) was “IAD” in each case. For the same compound, the “Lung Tmax” value in data set [1] (0.1 mg/kg) and in data set [1] (1.0 mg/kg) was “IAD” in each case. Moreover, the half-life was 10.2 h in data set [1] (setting [3]); 10.2 h in data set [1] (setting [4]); 10 h in data set [1] (male, Wistar, rat, inhaled, 0.1 mg/kg); 10 h in data set [1] (male, Wistar, rat, inhaled, 1.0 mg/kg). Besides, the Kp in data set [1] (male, Wistar, rat, lung/plasma, inhaled, at the two dose levels (0.1 and 1 mg/kg), read-out: lung/plasma ratio (AUClast lung / AUClast plasma)) was approximately 6000. For the same compound, the Cmax stood at 2.77 ng/mL in data set [1] (setting [3]) and 20.6 ng/mL in data set [1] (setting [4]). Besides, the AUC(0-t) in data set [1] (setting [3]) came out at 7.32 ng·h/mL; in data set [1] (setting [4]) it was 60.1 ng·h/mL.

Broadly, the IC50 is the concentration at which inhibition is half-maximal. In general, Cmax refers to the maximum level reached in the sampled fluid or tissue.
